Data as given in a melting point compilation (Tetko et al.; mined from patent text by program, amines drawn as free bases though some values may be those of a salt).

Row | melting point | Structure (SMILES)
1 | 149 to 151 °C | O=C1c2ccccc2CN1C1CCN(c2ccc(C(OCc3ccccn3)c3ccccc3)cc2)CC1 (centres undefined)
2 | 91 to 91.5 °C | COC1=C(OCCCc2ccccc2)c2c(C)ccnc2C(N)([N+](=O)[O-])C1 (centres undefined)
3 | 156 °C | COc1ccc(-n2nc(C(F)(F)F)nc2-c2ccc(S(C)(=O)=O)cc2)cc1
4 | > 300 °C | Clc1cccc(Nc2ncnc3[nH]c(-c4ccccn4)cc23)c1
5 | 220 to 221 °C | OCC(Nc1ccnc2cc(Cl)ccc12)c1ccccc1 (centres undefined)
6 | 165 to 166 °C | CC1(C)OC(=O)C(Oc2cccc(N)n2)=C1c1ccc(S(C)(=O)=O)cc1
7 | > 300 °C | N=C(N)c1cccc(Cn2ccc3ncn(Cc4ccc5ccc(C(=N)N)cc5c4)c3c2=O)c1
8 | 225 to 226 °C | CN(C)Cc1cccc(-c2cc(-c3ccccc3O)nc(NC(=O)c3cccs3)c2C#N)c1
9 | 147 to 149 °C | CCCCc1c(C(=O)N(C)Cc2ccc3c(Br)c(OCc4nnn[nH]4)ccc3c2)c2ccccc2n1C
10 | 148 to 150 °C | COCC(=O)N1CCN(CCc2ccc(-c3cccc(N)n3)cc2)CC1
11 | 178 to 180 °C | COc1ccc(S(=O)(=O)N2CCc3cccc(-c4ccc(N(C)C)cc4)c32)cc1
12 | 265 to 266 °C | O=C(Nc1cnc2c(c1)OCCN2)c1cc2cc(F)ccc2n1Cc1cccc(F)c1
13 | 96 to 98 °C | CCCCOCc1cc(-n2nc(C(N)=O)nc2-c2ccccc2)ccc1Cl
14 | 76 to 77.5 °C | O=C(O)Cc1cc(Cl)ccc1OCc1ccccc1

The remaining lines, values behind:

Row | Structure (SMILES) | melting point
15 | CCOC(=O)[C@@]1(C)CSC(c2ccc(OCCOCCOC)cc2O)=N1 | 68 to 70 °C
16 | OC(CN1CCNC1=S)c1ccccn1 (centres undefined) | 120 °C
17 | CN1C(=O)CCC(C)(C)c2cc(C(=O)Nc3ccc(C(=O)O)cc3)ccc21 | > 275 °C
18 | CCCCC(=O)Nc1c(N)ccnc1Cl | 163 °C
19 | Cc1ccccc1C=C(C#N)C#N | 105 to 106 °C
20 | CN1CC[C@@H](c2c(O)cc(O)c3c(=O)cc(-c4cccc(F)c4)oc23)[C@@H]1CO | 218 to 220 °C
21 | CCOCc1nc2c(N)nc3cc(N4CCCC4=O)ccc3c2n1CCCOC(C)C | 165 to 167 °C
22 | Cc1cccc2[nH]c3c4c(Cl)cccc4nc-3cc12 | 170 to 172 °C
23 | COCc1ccoc1C(=O)c1[nH]c2cc(Cl)ccc2c1CC(=O)O | 212 to 213 °C
24 | CCOC(=O)c1cnoc1-c1ccc(Cl)cc1 | 58 to 60 °C
25 | CC(=O)Nc1nc2c(C)cnc(-c3cccc([N+](=O)[O-])c3)n2n1 | 245 to 247 °C
26 | O=C(C=C(Cl)Cl)c1cc(F)c(Cl)cc1Cl | 64 to 65 °C
27 | CCc1ccc(S(=O)(=O)NC(C)(C)C)s1 | 38 °C
28 | CN(C)c1nc(NCc2ccco2)nc(Nc2cccc(C(F)(F)F)c2)n1 | 81 to 83 °C
29 | CS(=O)(=O)Nc1cc2occc(=O)c2cc1O | > 250 °C
30 | CC(C)c1cc2nc(N)[nH]c(=O)c2cc1-c1ccc(Cl)cc1 | 326 to 330 °C
31 | CCOC(=O)c1cn(-c2nc(C)ns2)c2cc(F)c(F)cc2c1=O | 157 to 159 °C
32 | CC(C)(C)OC(=O)CCOCCCc1ccnc(-c2nc(=O)c3ccccc3s2)c1 | 81.1 to 82.2 °C
33 | Fc1ccc(C23COC(c4ccc(Cl)cc4)(OC2)OC3)cc1 | 251 to 252 °C
34 | Cn1c(CNCC(C)(C)O)cc2cc(NC(=O)c3ccc(OC[C@@H]4CCCO4)cc3F)ccc21 | 159 to 160 °C
35 | Cc1c(C#N)c(-c2ccc(C#N)cc2)c(C)n1Cc1cnc(Cl)c(C(O)C(F)(F)F)c1 (centres undefined) | 200 to 201 °C
36 | C=CCC(O)CCCCCCCCCCCCCCC (centres undefined) | 37 to 39.5 °C
37 | Cc1cc(-c2ccc(Cl)cc2)cn2c(-c3nc(-c4ccc(S(N)(=O)=O)s4)no3)cnc12 | 271 °C
38 | Cc1cc(C#N)ccc1N1CCOCC1 | 85 to 86 °C
39 | CCOC(=O)C1CN(C(=O)c2cc(OC)c(OC)c(OC)c2)CCN1 (centres undefined) | 114 to 115 °C
